# Reference: patent US12622910B2, “Inhibitors of Bruton's tyrosine kinase and methods of their use” (Janssen Pharmaceutica NV, priority 2021, dated 2026)
# Like-named read-outs stand apart in the source and are kept apart here.
# Key:
# [1] = test system: HBL1 (CD79b/Myd88/A20 mutant); assay: Antiproliferative activity, 8 days; format: cell-based; details: Homo sapiens, HBL1, 192 h, n = 4
# Protocol: (§1) In Vitro Activity in DLBCL Cell Lines—NFκB signaling regulates the secretion of multiple cytokines, including interleukin (IL)-6 and IL-10. Secretion of IL-6 and -10 by ABC-DLBCL OCI-LY-10 cells was measured using a MesoScale assay. […] To determine the anti-proliferative activity of the compound of formula (III), several ABC-DLBCL cell lines—OCI-LY-3, OCI-LY-10, TMD8, and HBL-1—were treated for 8 days. […] The OCI-LY-3 cell line, which harbors a CARD11 mutation downstream of BTK in the NF-κB signaling pathway, was completely insensitive to the compound of Formula (III) up to 2 μM. In 2 experiments, OCI-LY-3 cells were insensitive to the compound of Formula (III) at all concentrations up to 10 μM.
# [2] = test system: OCI-LY10 (CD79b/Myd88/A20 mutant); assay: Antiproliferative activity, 8 days; format: cell-based; details: Homo sapiens, OCI-Ly10, 192 h, n = 4
# Protocol: as §1
# [3] = test system: TMD8 (CD79b/Myd88/A20 mutant); assay: Antiproliferative activity, 8 days; format: cell-based; details: Homo sapiens, TMD8, 192 h, n = 4
# Protocol: as §1
# CYP3A4 (CYP3A) = CYP3A4 (CYP3A) (Homo sapiens, UniProt P08684); assay: Time-dependent inhibition of CYP3A in human liver microsomes; format: in vitro ADME; details: probe testosterone
# Sequence of CYP3A4 (CYP3A) (P08684 2-503): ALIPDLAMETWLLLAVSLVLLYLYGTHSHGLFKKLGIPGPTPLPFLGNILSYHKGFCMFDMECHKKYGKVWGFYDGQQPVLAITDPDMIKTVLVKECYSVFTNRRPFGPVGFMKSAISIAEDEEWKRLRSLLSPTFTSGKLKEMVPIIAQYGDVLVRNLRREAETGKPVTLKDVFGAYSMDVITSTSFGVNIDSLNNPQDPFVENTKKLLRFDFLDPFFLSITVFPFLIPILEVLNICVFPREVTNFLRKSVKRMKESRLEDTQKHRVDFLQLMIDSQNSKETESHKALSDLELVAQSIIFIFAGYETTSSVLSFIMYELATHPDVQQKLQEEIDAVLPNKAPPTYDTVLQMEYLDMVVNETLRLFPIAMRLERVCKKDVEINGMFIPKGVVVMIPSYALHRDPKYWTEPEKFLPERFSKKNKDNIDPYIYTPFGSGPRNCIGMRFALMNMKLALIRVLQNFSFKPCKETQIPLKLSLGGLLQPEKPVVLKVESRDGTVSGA
# Protocol: To assess the potential of the compound of Formula (III) to be a time-dependent inhibitor of CYP3A, human liver microsomes were preincubated for 30 minutes at 37° C. with the compound of Formula (III) at concentrations up to 10 μM, and CYP3A activity was measured using testosterone as a probe substrate. […] The potential of the compound of Formula (III) to induce CYPs at the transcriptional level was assessed using Puracyp™ DPX2 (CYP3A4, PXR) and DRE (CYP1A2, AhR) luciferase-reporter cell lines; rifampicin and omeprazole were used as positive controls for CYP3A and CYP1A induction, respectively. The activation by the compound of Formula (III) was <20% of positive control values for PXR (6.6% and 14.1% at 1 and 10 μM change, respectively) or AhR (0.1% and 0.3% change, respectively). […] Potential involvement of various CYP isoforms in the metabolism of the compound of Formula (III) was investigated by measuring the parent compound remaining after 1-hour incubation with the compound of Formula (III) (1 μM) with recombinant CYPs (rCYPs) at 100 pmol P450/mL in the presence of 1 mM NADPH at 37° C. The only isozyme that produced notable the compound of Formula (III) turnover with <1% parent remaining after 1-hour incubation was CYP3A4 (FIG. 24). […]
# [4] = Metabolic stability in hepatocytes; format: in vitro ADME; details: for half-life: read-out: T1/2, hepatocytes
# Protocol: (§2) Additional Data on Preclinical PK Profile—Protein binding of the compound of Formula (III) was studied using an equilibrium dialysis method in plasma from human, cynomolgus monkey, beagle dog, Sprague Dawley rat, CD-1 mouse, and guinea pig at 0.25, 2.5, and 25 μM. […] In human and monkey, the plasma protein binding was concentration dependent. […] Free fraction of the compound of Formula (III) in liver microsomes from various species ranged from 75.1% to 87.9% at 0.25 mg/mL and from 58.9% to 86.5% at 1.0 mg/mL (Table 17). […] In hepatocytes, the compound of Formula (III) turnover followed a similar trend, with T1/2 ranging from 75.3 minutes in monkey to 278.1 minutes in human.
# Liver microsomal binding = format: in vitro ADME; details: liver microsomes, read-out: % Free in liver microsomes
# Protocol: as §2
# [5] = Blood-to-plasma concentration ratio; format: in vitro ADME; details: dog, fresh blood
# [6] = Metabolic stability in liver microsomes; format: in vitro ADME, rat
# Protocol: as §2
# [7] = Metabolic stability in hepatocytes; format: in vitro ADME, monkey
# Protocol: as §2
# [8] = Metabolic stability in liver microsomes; format: in vitro ADME, monkey
# Protocol: as §2
# BLK = molecular target: T1, BLK (Homo sapiens, UniProt P51451); assay: Eurofins KinaseProfiler/IC50Profiler radiometric kinase activity assay; format: biochemical
# T1 construct: purchased Eurofins Scientific
# T1 sequence (P51451 whole entry): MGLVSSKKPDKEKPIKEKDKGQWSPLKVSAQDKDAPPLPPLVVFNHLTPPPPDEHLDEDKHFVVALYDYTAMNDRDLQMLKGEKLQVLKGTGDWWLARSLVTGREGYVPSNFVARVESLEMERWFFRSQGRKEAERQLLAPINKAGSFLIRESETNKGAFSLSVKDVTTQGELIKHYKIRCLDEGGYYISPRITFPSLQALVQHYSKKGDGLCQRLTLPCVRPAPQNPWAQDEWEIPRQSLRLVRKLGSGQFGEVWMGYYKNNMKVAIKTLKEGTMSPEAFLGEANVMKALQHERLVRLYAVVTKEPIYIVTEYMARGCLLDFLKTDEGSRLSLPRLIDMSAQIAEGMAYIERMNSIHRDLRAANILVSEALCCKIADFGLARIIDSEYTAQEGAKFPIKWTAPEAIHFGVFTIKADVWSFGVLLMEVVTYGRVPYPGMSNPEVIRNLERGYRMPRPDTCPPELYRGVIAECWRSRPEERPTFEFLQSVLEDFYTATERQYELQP
# Protocol: RESULTS AND DISCUSSION—Selectivity—The compound of Formula (III) was evaluated in three selectivity panels to assess the potential for off-target pharmacology (Table 8). […] The kinase off-target profile of The compound of Formula (III) was assessed in a full human wild-type panel using radiometric kinase activity assays (KinaseProfiler™ and IC50Profiler™; Eurofins Scientific) (Table 9; FIG. 23). The compound of Formula (III) inhibited 4/278 kinases >50% at 1 micromolar, identifying BTK and the three other kinases having analogous Cys residues with the potential for covalent inhibition (BMX, TEC, BLK). […]. The cellular kinase selectivity of The compound of Formula (III) was established in native Ramos B cell kinome assays (KiNativ™; ActivX) confirmed BTK as the primary target with inhibition of BLK and TEC inhibition detected (Table 10).
smiles,measurement,setting,value
"C=CC(=O)N[C@H]1CCC[C@H]1NC(=O)c1sc2nccc3c2c1NC(=O)N3c1cnc(CC(C)C)cc1C (atropisomer, axis not shown) [compound of Formula (III), N-((1R,2S)-2-Acrylamidocyclopentyl)-5-(S)-(6-isobutyl-4-methylpyridin-3-yl)-4-oxo-4,5-dihydro-3H-1-thia-3,5,8-triazaacenaphthylene-2-carboxamide]",IC50,[1],30 nM
same,IC50,[2],18 nM
same,IC50,[3],34 nM
same,IC50,CYP3A4 (CYP3A); with 30 min preincubation,9810 nM
same,IC50,CYP3A4 (CYP3A); without preincubation,> 10000 nM
same,hepatocyte CLint,[4]; dog,19.2 µL/min/1e6 cells
same,half-life,[4]; dog,4.62 h
same,hepatocyte CLint,[4]; human,15.4 µL/min/1e6 cells
same,half-life,[4]; human,4.64 h
same,hepatocyte CLint,[4]; rat,52.3 µL/min/1e6 cells
same,half-life,[4]; rat,2.12 h
same,fraction unbound at 1 μM,"Liver microsomal binding; dog, 0.25 mg/mL",0.879
same,fraction unbound at 1 μM,"Liver microsomal binding; dog, 1.0 mg/mL",0.694
same,fraction unbound at 1 μM,"Liver microsomal binding; human, 0.25 mg/mL",0.758
same,fraction unbound at 1 μM,"Liver microsomal binding; human, 1.0 mg/mL",0.641
same,fraction unbound at 1 μM,"Liver microsomal binding; monkey, 0.25 mg/mL",0.751
same,fraction unbound at 1 μM,"Liver microsomal binding; monkey, 1.0 mg/mL",0.589
same,fraction unbound at 1 μM,"Liver microsomal binding; mouse, 1.0 mg/mL",0.82
same,fraction unbound at 1 μM,"Liver microsomal binding; rat, 0.25 mg/mL",0.84
same,fraction unbound at 1 μM,"Liver microsomal binding; rat, 1.0 mg/mL",0.865
same,blood plasma ratio at 1 μM,[5],0.75
same,"Extraction Ratio, liver microsomes",[6]; Rat,0.58
same,microsomal CLint,"[6]; rat, liver microsomes",53.8 µL/min/mg
same,half-life,"[6]; rat, liver microsomes, read-out: T1/2, liver microsomes",0.215 h
same,"Extraction Ratio, hepatocytes",[7],0.78
same,hepatocyte CLint,"[7]; monkey, hepatocytes",66.3 µL/min/1e6 cells
same,half-life,"[7]; monkey, hepatocytes, read-out: T1/2, hepatocytes",1.25 h
same,"Extraction Ratio, liver microsomes",[8]; Monkey,0.65
same,microsomal CLint,"[8]; monkey, liver microsomes",61 µL/min/mg
same,half-life,"[8]; monkey, liver microsomes, read-out: T1/2, liver microsomes",0.19 h
same,inhibition at 1 µM,BLK; 1 μM,54%
same,IC50,"BLK; 10-point concentration response, read-out: IC50 (IC50 Profiler)",3130 nM
